For 21 compounds, EC50 and IC50 results are on record in US8431563B2 (priority 2010, dated 2013).

Structures can show the parent of a compound that is named as a salt.

In one assay the target is T1, GKRP (Glucokinase Regulatory Protein) with human His-hepatic GK (Homo sapiens, UniProt Q14397).
T1 sequence (Q14397 1-625): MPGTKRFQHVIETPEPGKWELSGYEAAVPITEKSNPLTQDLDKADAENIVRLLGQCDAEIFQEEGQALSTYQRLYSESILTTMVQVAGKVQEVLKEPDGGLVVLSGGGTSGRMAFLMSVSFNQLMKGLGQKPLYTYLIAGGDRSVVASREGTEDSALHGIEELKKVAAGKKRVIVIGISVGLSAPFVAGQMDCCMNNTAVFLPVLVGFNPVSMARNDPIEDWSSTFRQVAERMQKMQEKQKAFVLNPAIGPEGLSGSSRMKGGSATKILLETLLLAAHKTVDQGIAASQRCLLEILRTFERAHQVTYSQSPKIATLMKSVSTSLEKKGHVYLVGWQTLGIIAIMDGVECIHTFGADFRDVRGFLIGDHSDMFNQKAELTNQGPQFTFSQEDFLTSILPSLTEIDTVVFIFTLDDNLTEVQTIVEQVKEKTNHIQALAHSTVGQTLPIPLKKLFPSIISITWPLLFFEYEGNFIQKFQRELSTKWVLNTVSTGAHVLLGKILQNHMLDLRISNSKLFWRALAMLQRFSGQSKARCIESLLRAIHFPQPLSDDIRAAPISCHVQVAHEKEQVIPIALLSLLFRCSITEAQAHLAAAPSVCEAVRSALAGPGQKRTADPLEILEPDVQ
In words: biochemical. As to conditions: 13C-glucose-6-phosphate formation; 280 nM GKRP (10×), 30 nM GK (5×); read-out: GK-GKRP EC50 (LC MS/MS-2). The method, then:
GKRP LC MS/MS-2 Biochemical Assay
This assay is used to directly measure the formation of ^13C-glucose-6-phosphate from ^13C-glucose by LC MS/MS. Begin by preparing the following solutions: Compound Buffer (CB): 50 mM Tris, pH 7.5/4 mM MgCl2/6% DMSO/fresh 10 mM DTT from 1M frozen stock. Enzyme Buffer (EB): 50 mM Tris, pH 7.5/4 mM MgCl2/6% DMSO/fresh 0.1% BSA/fresh 0.01% Brij-35 (10% BSA and 1% Brij-35 stock). GK (Glucokinase) Working Stock (5×): Dilute human His-hepatic GK to 30 nM in EB buffer. […] After 30 minutes add 10 μl of GK Working Stock (5×). Re-seal the plate and incubate for another 30 minutes at room temperature while mixing. After the second 30 minutes, stop the reaction by the addition of 50 μl of 100% acetonitrile, seal, and mix for 5-10 minutes. Run 10 μl of this sample through the LC MS/MS (API 3200, Applied Biosystems, Carlsbad, Calif.).
As for “2-(4-((2S)-4-((5-amino-2-thiophenyl)sulfonyl)-2-(((3S)-3-methyl-4-morpholinyl)methyl)-1-piperazinyl)phenyl)-1,1,1,3,3,3-hexafluoro-2-propanol [Example 225]”, the EC50 turned out to be 19 nM.

Regarding `C[C@H]1COCCN1C[C@H]1CN(S(=O)(=O)c2cccs2)CCN1c1ccc(C(O)(CO)C(F)(F)F)cc1` (mixture of isomers) [Example 83, 3,3,3-trifluoro-2-(4-((2S)-2-(((3S)-3-methyl-4-morpholinyl)methyl)-4-(2-thiophenylsulfonyl)-1-piperazinyl)phenyl)-1,2-propanediol], the EC50 was 19 nM.

Regarding `CC(C)C1C(=O)NCCN1C[C@H]1CN(S(=O)(=O)c2ccc(N)s2)CCN1c1ncc(C(O)(C(F)(F)F)C(F)(F)F)cn1` (single isomer, unassigned) [Example 184 Peak #2], the EC50 came out at 25 nM.

The next assay addresses T2, interaction between glucokinase (GK) and glucokinase regulatory protein (GKRP) (Homo sapiens, UniProt Q14397).
T2 sequence (Q14397 1-625): T1 sequence (Q14397 1-625)
In words: biochemical. In kind it is binding. The conditions noted are these: GK-GKRP IC50 (Binding), avi-tagged GKRP, GK-fluorescein, AlphaScreen beads. The procedure: GK-GKRP Binding Assay Protocol
This assay is used to directly measure the interaction between glucokinase (GK) and glucokinase regulatory protein (GKRP). Begin by preparing the following solutions. Assay Buffer: 20 mM Tris, pH 7.5/0.05% BSA/1 mM DTT/1 μM sorbitol-6-phosphate. […] Combine the following reagents in a white 96-well half area plate. Pipette 14 μl of the diluted avi-tagged GKRP into each well. Add 1 μl of compound to be tested and incubate at room temperature for 20 minutes. After 20 minutes, add 5 μl of assay buffer containing 6 nM GK-fluorescein. […] Incubate in a dark room for 2 hours at room temperature. After 2 hours read the plate using an Envision plate reader (Perkin Elmer, Waltham Mass.).
`CC(O)(c1ccc(N2CCN(S(=O)(=O)c3cccs3)C[C@@H]2CNC2CC2)cc1)C(F)(F)F` (mixture of isomers) [Example 199, 2-(4-((2S)-2-((cyclopropylamino)methyl)-4-(2-thiophenylsulfonyl)-1-piperazinyl)phenyl)-1,1,1-trifluoro-2-propanol] had an IC50 of 713 nM. In turn, `NCC#Cc1cc(C(O)(C(F)(F)F)C(F)(F)F)ccc1N1CCN(S(=O)(=O)c2cccs2)CC1` [Example 159, 2-(3-(3-amino-1-propyn-1-yl)-4-(4-(2-thiophenylsulfonyl)-1-piperazinyl)phenyl)-1,1,1,3,3,3-hexafluoro-2-propanol trifluoroacetate] registered an IC50 of 1920 nM.

The assay is the same for the next values; noted with them: avi-tagged GKRP, GK-fluorescein, AlphaScreen beads; read-out: GK-GKRP IC50 (Binding).
For the compound “2-(4-((2S)-4-((5-amino-2-thiophenyl)sulfonyl)-2-(((3S)-3-methyl-4-morpholinyl)methyl)-1-piperazinyl)phenyl)-1,1,1,3,3,3-hexafluoro-2-propanol [Example 225]”, the IC50 came to 7 nM.

Consider `CN(Cc1cn(C)cn1)C[C@H]1CN(S(=O)(=O)c2cccs2)CCN1c1ccc(C(C)(O)C(F)(F)F)cc1` (mixture of isomers) [Example 121, 1,1,1-trifluoro-2-(4-((2S)-2-((methyl((1-methyl-1H-imidazol-4-yl)methyl)amino)methyl)-4-(2-thiophenylsulfonyl)-1-piperazinyl)phenyl)-2-propanol], for which the IC50 stood at 521 nM.

In the case of `CC(O)(c1ccc(N2CCN(S(=O)(=O)c3cccs3)C[C@@H]2CN2CCNC(=O)C2)cc1)C(F)(F)F` (mixture of isomers) [Example 179, 4-(((2S)-4-(2-thiophensulfonyl)-1-(4-(2,2,2-trifluoro-1-hydroxy-1-methylethyl)phenyl)-2-piperazinyl)methyl)-2-piperazinone], the IC50 came out at 542 nM.

As for `CC(O)(c1ccc(N2CCN(S(=O)(=O)c3cccs3)C[C@@H]2CN(C2CCC2)S(=O)(=O)c2cccnc2)cc1)C(F)(F)F` (mixture of isomers) [Example 213, N-cyclobutyl-N-(((2R)-4-(2-thiophenylsulfonyl)-1-(4-(2,2,2-trifluoro-1-hydroxy-1-methylethyl)phenyl)-2-piperazinyl)methyl)-3-pyridinesulfonamide], the IC50 came to 928 nM.

Consider `CC(c1ccccc1)N(C[C@H]1CN(S(=O)(=O)c2cccs2)CCN1c1ccc(C(C)(O)C(F)(F)F)cc1)S(C)(=O)=O` (mixture of isomers) [Example 222, N-(1-phenylethyl)-N-(((2R)-4-(2-thiophenylsulfonyl)-1-(4-(2,2,2-trifluoro-1-hydroxy-1-methylethyl)phenyl)-2-piperazinyl)methyl)methanesulfonamide], for which the IC50 was 671 nM.

As to `CCC(O)C#Cc1cc(C(O)(C(F)(F)F)C(F)(F)F)ccc1N1CCN(S(=O)(=O)c2cccs2)CC1` (racemic) [Example 154, 1-(2-(4-(2-thiophenylsulfonyl)-1-piperazinyl)-5-(2,2,2-trifluoro-1-hydroxy-1-(trifluoromethyl)ethyl)phenyl)-1-pentyn-3-ol], the IC50 came to 1060 nM. Regarding `CC(C)C(O)C#Cc1cc(C(O)(C(F)(F)F)C(F)(F)F)ccc1N1CCN(S(=O)(=O)c2cccs2)CC1` (racemic) [Example 156, 4-methyl-1-(2-(4-(2-thiophenylsulfonyl)-1-piperazinyl)-5-(2,2,2-trifluoro-1-hydroxy-1-(trifluoromethyl)ethyl)phenyl)-1-pentyn-3-ol], the IC50 was 2860 nM. Turning to `COC(C#Cc1cc(C(O)(C(F)(F)F)C(F)(F)F)ccc1N1CCN(S(=O)(=O)c2cccs2)CC1)C(C)C` (racemic) [Example 157, 1,1,1,3,3,3-hexafluoro-2-(3-(3-methoxy-4-methyl-1-pentyn-1-yl)-4-(4-(2-thiophenylsulfonyl)-1-piperazinyl)phenyl)-2-propanol], the IC50 was determined as 658 nM. On to `CCC(O)C#Cc1cc(C(O)(C(F)(F)F)C(F)(F)F)ccc1N1CCC(S(=O)(=O)c2ccccc2)CC1` (racemic) [Example 162, 1-(2-(4-(phenylsulfonyl)-1-piperidinyl)-5-(2,2,2-trifluoro-1-hydroxy-1-(trifluoromethyl)ethyl)phenyl)-1-pentyn-3-ol], for which the IC50 is 5180 nM. `COc1cccc(CC2CN(S(=O)(=O)c3cccs3)CCN2c2ccc(C(O)(C(F)(F)F)C(F)(F)F)cc2)c1` (racemic) [Example 173, 1,1,1,3,3,3-hexafluoro-2-(4-(2-(3-methoxybenzyl)-4-(thiophen-2-ylsulfonyl)piperazin-1-yl)phenyl)-2-propanol]: the IC50 is 542 nM. `COc1ccc(CC2CN(S(=O)(=O)c3cccs3)CCN2c2ccc(C(O)(C(F)(F)F)C(F)(F)F)cc2)cc1` (racemic) [Example 175, 1,1,1,3,3,3-hexafluoro-2-(4-(2-(4-methoxybenzyl)-4-(thiophen-2-ylsulfonyl)piperazin-1-yl)phenyl)-2-propanol]: the IC50 is 2870 nM. As for `O=S(=O)(c1cccs1)N1CCN(c2ccc(C(O)(C(F)(F)F)C(F)(F)F)cc2)C(Cc2ccc(O)cc2)C1` (racemic) [Example 177, 4-((1-(4-(1,1,1,3,3,3-hexafluoro-2-hydroxypropan-2-yl)phenyl)-4-(thiophen-2-ylsulfonyl)piperazin-2-yl)methyl)phenol], the IC50 came out at 786 nM.

`CC(O)(c1ccc(N2CCN(S(=O)(=O)c3cccs3)C[C@@H]2C[S+]([O-])c2cccc(F)c2)cc1)C(F)(F)F` (single isomer, unassigned) [Example 189 Peak#2]: the concentration for half-maximal inhibition (IC50) was 717 nM. The same measure, in the same setting: the same measure for `CC(O)(c1ccc(N2CCN(S(=O)(=O)c3cccs3)C[C@@H]2C[S+]([O-])c2cccc(F)c2)cc1)C(F)(F)F` (single isomer, unassigned) [Example 189 Peak#3]: 535 nM; for `C[C@H]1COCCN1C[C@H]1CN(S(=O)(=O)c2cccs2)CCN1c1ccc(C(O)(C(F)(F)F)C(F)(F)F)cc1` [Example 132, 1,1,1,3,3,3-hexafluoro-2-(4-((2S)-2-(((3S)-3-methyl-4-morpholinyl)methyl)-4-(2-thiophenylsulfonyl)-1-piperazinyl)phenyl)-2-propanol]: 6 nM; for `C[C@H]1CN(S(=O)(=O)c2cnc(N)s2)CCN1c1ncc(C(O)(C(F)(F)F)C(F)(F)F)cn1` [Example 147, 2-(2-((2S)-4-((2-amino-1,3-thiazol-5-yl)sulfonyl)-2-methyl-1-piperazinyl)-5-pyrimidinyl)-1,1,1,3,3,3-hexafluoro-2-propanol]: 998 nM. Same read-out and setting: under `CC(C)(C)OC(=O)NCC#Cc1cc(C(O)(C(F)(F)F)C(F)(F)F)ccc1N1CCN(S(=O)(=O)c2cccs2)CC1` [Example 158, tert-butyl (3-(2-(4-(2-thiophenylsulfonyl)-1-piperazinyl)-5-(2,2,2-trifluoro-1-hydroxy-1-(trifluoromethyl)ethyl)phenyl)-2-propyn-1-yl)carbamate] stands 695 nM.
